In one experiment the test system is PGC-1α/β KO myotubes. Nature of the experiment: Gene expression (qPCR) and HIF-1α immunoblot in PGC-1α/β KO myotubes. It counts as cell-based, mice. To be noted: for effect on induction of mitochondrial ETC genes by SIRT1 overexpression: PGC-1α/β knockout myocytes/myotubes; for effect on induction of mitochondrial ETC genes by SIRT1 overexpression / effect on NMN-induced expression of mitochondrially-encoded ETC genes: 1 mM DMOG or 10 μM DFO, 12 hours; for effect on NMN-induced expression of mitochondrially-encoded ETC genes: primary PGC-1α/β KO myotubes; for nuclear- and mitochondrial-encoded genes: EX-527 48 h. How it is done: Primary myoblasts cells were isolated from WT, SIRT1 KO (Price et al., 2012) and PGC-1α/β KO (Zechner et al., 2010) mice as previously described (Price et al., 2012). WT and PGC-1α/β KO primary myoblasts were plated and allowed to differentiate into myotubes by replacing the media with low glucose DMEM supplemented with 2% horse serum (Sigma-Aldrich) for 4 days. After the differentiation the cells were infected with empty vector or flag-SIRT1 adenovirus as described before (Gerhart-Hines et al., 2007). Media was replaced with fresh DMEM supplemented with 2% horse serum (Sigma-Aldrich) for an additional 48 hr and, after that the cells were harvested for the different assays as described. To investigate the role of HIF-1α in genome asynchrony, PGC-1α/β KO primary myotubes were treated for 12 hours with 1 mM DMOG (Sigma) or 10 μM DFO (Sigma), 24 h after infection with empty vector of flag-SIRT1 adenovirus or after 12 h treatment with […] NMN (Sigma).
(§1) RNA from skeletal muscle tissue and C2C12 cells were extracted with RNeasy mini kit (Qiagen) according to the instructions and quantified using the NanoDrop 1000 spectrophotometer (Thermo Scientific). cDNA was synthesized with the iSCRIP cDNA synthesis kit (BioRad) using 600 ng of RNA. Quantitative RT-PCR reactions were performed using 1 μM of primers and LightCycler® 480 SYBR Green Master (Roche) on an LightCycler® 480 detection system (Roche). Calculations were performed by a comparative method (2-ΔCT) using 18S as an internal control. For mtDNA analysis, total DNA was extracted with DNeasy blood and tissue kit (Qiagen). mtDNA was amplified using primers specific for the mitochondrial cytochrome c oxidase subunit 2 (COX2) gene and normalized to genomic DNA by amplification of the ribosomal protein s18 (rps18) nuclear gene. Primers were designed using the IDT software (IDT) and the primer sequences can be found in Table 1.
(§2) Protein extracts from tissue or C2C12 cells were obtained by lysis in ice-cold lysis buffer (150 mM NaCl, 10 mM Tris HCl (pH 7.4), 1 mM EDTA, 1 mM EGTA, 1% Triton X-100, 0.5% NP-40) supplemented with a cocktail of protease and phosphatase inhibitors (Roche). Protein content was determined by the Bradford protein assay (Biorad), and 50 μg proteins were run on SDS-PAGE under reducing conditions. The separated proteins were then electrophoretically transferred to a polyvinylidene difluoride membrane (Perkin-Elmer). […] The immunostaining was detected using horseradish peroxidase-conjugated anti-rabbit or anti-mouse immunoglobulin for 1 h at room temperature.
(In general: In qPCR the cycle at which signal appears reflects the starting amount.)

For experiment [1], the system named is inflammation related markers (TNFa, IL-6, IL-18). Nature of the experiment: qPCR of inflammation related markers in gastrocnemius. It counts as in vivo, C57BL/6J mice. To be noted: 6-month-old mice, DMOG IP 300 mg/kg/day, 5 days. How it is done:
C57BL/6J mice of 3, 6, 22, or 24 months of age were obtained from the National Institutes of Aging mouse aging colony. Mice were acclimated for at least one-week prior to sacrifice. 3, 6, 22 and 24-month-old mice were given interperitoneal (IP) injections of 500 mg NMN/kg body weight per day or the equivalent volume of PBS for 7 consecutive days at 5:00 pm and 7:00 am on day 8 and sacrificed 4 hr after last injection. All animal studies followed the guidelines of and were approved by the Harvard Institutional Animal Care and Use Committee
C57BL/6J mice of 6 months of age were given interperitoneal (IP) injections of 300 mg DMOG/kg body weight per day or the equivalent volume of PBS for 5 consecutive days. All animal studies followed the guidelines of and were approved by the Harvard Institutional Animal Care and Use Committee
RNA from skeletal muscle and aorta were extracted with RNeasy mini kit (Qiagen) according to the instructions and quantified using the NanoDrop 1000 spectrophotometer (Thermo Scientific). cDNA was synthesized with the iSCRIP cDNA synthesis kit (BioRad) using 600 ng of RNA. Quantitative RT-PCR reactions were performed using 1 μM of primers and LightCycler® 480 SYBR Green Master (Roche) on an LightCycler® 480 detection system (Roche). Calculations were performed by a comparative method (2-ΔCT) using 18S as an internal control. […]

The next experiment deals with HIF-1α. Nature of the experiment: DMOG treatment of SIRT1-tg mice (HIF-1α immunoblot, qPCR, ATP content in gastrocnemius). To be noted: DMOG IP 300 mg/kg/day, 5 days. It counts as in vivo. How it is done:
Whole body SIRT1 overexpressor (SIRT1-tg) mice of 6 months of age were given interperitoneal (IP) injections of 300 mg DMOG/kg body weight per day or the equivalent volume of PBS for 5 consecutive days.
ATP content was measured with a commercial kit according to the manufacturer's instructions (Roche).
as §1, §2

The next experiment deals with TFAM promoter. Nature of the experiment: TFAM promoter activity (luciferase assay) in primary WT myoblasts. The experiment is classed as cell-based, mouse. How it is done: TFAM promoter, VHL promoter, HRE and c-Myc activity were determined using a luciferase-based system. Luciferase activity was measured using the Dual-Luciferase Reporter Assay System (Promega) with Renilla as the reference.
TFAM promoter activity was evaluated using a TFAM promotes-luc plasmid. A fragment of the mouse Tfam promoter (1.4 kb upstream of the coding sequence) was cloned into a pGL4.15 vector (Promega). Luciferase activity was measured using the Dual-Luciferase Reporter Assay System (Promega) with Renilla as the reference 48 h after transfection.

The subject of the next experiment is C2C12 myoblasts. Nature of the experiment: mtDNA content and ETC gene expression in C2C12 myoblasts. It counts as cell-based. How it is done:
C2C12 cell line (ATCC) was cultured in low glucose Dulbecco's modified eagle medium (DMEM) (Invitrogen) supplemented with 10% FBS (Invitrogen) and a mix of antibiotic and antimycotic (Invitrogen). To inhibit SIRT1, cells were treated the vehicle (0.001% DMSO) or 10 μM EX-527 (Tocris) for 12 h. C2C12 myoblasts were infected with an empty or SIRT1 adenovirus as described before (Gerhart-Hines et al., 2007) and the media was replaced with fresh DMEM for additional 48 h, after that the cells were treated as described before. To test the effects of hypoxia and HIFα stabilization in genome asyncrony, C2C12 myoblasts were exposed to 1% oxygen for 16 h or treated with the vehicle (0.001% DMSO) or DMOG (Cayman) for the same period of time.
as §1

In the next experiment the test system is primary myoblasts. The experiment in a line: NAD+/NADH ratio and HIF-1α immunoblot in primary WT myoblasts treated with pyruvate or lactate. It counts as cell-based, mice. Conditions: 10 mM lactate, 24 h. From the text: FIG. 21 provides additional data related to the content of FIG. 14. FIG. 21A depicts HIF-1α target genes (PGK-1, Glut1, PDK1 and Vegfa) expression in gastrocnemius of WT and SIRT1 KO mice. Relative expression values were normalized to WT mice (n=5). FIG. 21B depicts hypoxia response element activity in primary myoblasts isolated from WT and SIRT1 KO mice and treated with or without DMOG. Relative luciferase activity was normalized to WT cells (n=6, *p<0.05 versus WT). FIG. 21C depicts a representative immunoblot of HIF-1α and Tubulin in PGC-1α/β KO myotubes treated with adenovirus overexpressing SIRT1 or empty vector as well as treatment with DMSO or with HIF stabilizing compound DMOG. FIG. 21D depicts NAD+/NADH ration measured in primary WT myoblasts treated with either 10 mM pyruvate, 10 mM lactate or vehicle for 24 h (n=4). […] FIG. 21J depicts mitochondrial DNA content analyzed by qPCR in control, HIF-1α DPA or HIF-2α DPA C2C12 cells treated with adenovirus overexpressing SIRT1 or empty vector. […] FIG. 21K depicts ARNT mRNA analyzed by qPCR in C2C12 cells infected with ARNT or nontargeting shRNA. […] FIG. 21L depicts mitochondrial DNA content analyzed by qPCR in C2C12 cells infected with ARNT or nontargeting shRNA. […] FIG. 21M depicts ND1, Cytb, COX1 and ATP6 mRNA analyzed by qPCR in C2C12 cells infected with ARNT or nontargeting shRNA. […] Values are expressed as mean±SEM. […]
For orientation: Immunoblotting shows a protein as a band on a membrane.

[2] abbreviates: C2C12 myoblasts treated with DMOG, 16 h.

In the case of `CC(=O)N(O)CCCCCNC(=O)CCC(=O)N(O)CCCCCNC(=O)CCC(=O)N(O)CCCCCN` [DFO, desferrioxamine], in the experiment with PGC-1α/β KO myotubes, the “effect on induction of mitochondrial ETC genes by SIRT1 overexpression” value is “completely blocked” and the “effect on NMN-induced expression of mitochondrially-encoded ETC genes” value is on record as “completely abolished”.

Turning to `COC(=O)CNC(=O)C(=O)OC` [DMOG, dimethyloxaloylglycine], in experiment [1], the “inflammation related markers (TNFalpha, IL-6, Il-1b and IL-18) in the skeletal muscle” value is on record as “induces inflammatory markers in the skeletal muscle”. Besides, in the experiment with HIF-1α, the HIF-1α protein entry is on record as “increase HIF-1α”, the “increase in ATP levels observed in SIRT1-tg mice” value is “abolished” and the “increase in the expression of mitochondrial-encoded genes observed in SIRT1-tg mice” value is “abolished the increase”. In addition, the “effect on NAD (pyruvate) mediated increases in mitochondrial-encoded genes” value with PGC-1α/β KO myotubes (PGC-1α/β KO cells, pyruvate in the presence of DMOG) is “can be inhibited”. Besides, in the experiment with PGC-1α/β KO myotubes (PGC-1α/β KO myotubes, DMOG (FIG. 21C)), the HIF-1α protein entry is listed as “stabilizes HIF-1α protein”. Also, in the experiment with PGC-1α/β KO myotubes, the “effect on induction of mitochondrial ETC genes by SIRT1 overexpression” value is recorded as “completely blocked” and the “effect on NMN-induced expression of mitochondrially-encoded ETC genes” value is given as “completely abolished”. For the same compound, the “expression of mitochondrial-encoded genes” value in the experiment with PGC-1α/β KO myotubes (PGC-1α/β knockout myotubes, DMOG compared to vehicle control) is given as “induced a decline”. For the same compound, in the experiment with TFAM promoter (DMOG vs vehicle (DMSO)), the “full length TFAM promoter activity” value was “reduces the full length TFAM promoter activity”. Moreover, the “TFAM promoter activity with c-Myc consensus sequence mutation” value in the experiment on TFAM promoter (DMOG, absence of the c-Myc binding site) is listed as “does not have an additive effect”. In addition, in the experiment on C2C12 myoblasts (setting [2]), the “expression of mitochondrially-encoded ETC genes” value was “specific decline” and the mtDNA content entry was “specific decline”.

With `NC(=O)C1CCCc2c1[nH]c1ccc(Cl)cc21` (centres unmarked) [EX-527], the “nuclear- and mitochondrial-encoded genes” value in the experiment on PGC-1α/β KO myotubes (PGC-1α/β KO myotubes reconstituted with PGC-1α T177A/S538A mutant) is “only the mitochondrial-encoded genes decreased”; with PGC-1α/β KO myotubes (PGC-1α/β KO myotubes reconstituted with WT PGC-1α) it was “decreased both nuclear- and mitochondrial-encoded genes”. For the same compound, in the experiment with C2C12 myoblasts (C2C12 cells, 10 μM EX-527, 12 h), the genome asynchrony result was “induced”.

Take `CC(O)C(=O)O` (centres unmarked) [lactate]: in the experiment with primary myoblasts, the HIF-1α protein result is on record as “induces HIF-1α protein stabilization” and the “NAD+/NADH ratio” value is recorded as “decreasing”.
